One test deals with P. aeruginosa. The experiment in a line: HTS total bacterial growth assay (optical density OD560). Type of test: cell-based, Pseudomonas aeruginosa. To be noted: for AC50: Pseudomonas aeruginosa, 10 point dose-response 0.1-50 μM, read-out: Total Bacteria Growth AC50. From the text:
(§1) Each HTS tier consisted of: (i) primary screening, (ii) confirmation screening and (iii) dose-response curve screening. Each tier of HTS included three distinct biological process assays. The first assay was an optical density measurement of bacteria growth in the presence of each compound reported as a total bacteria growth. In the second assay, resazurin solution was used as an indicator of metabolic activity to measure the live bacteria in the biofilms, reported as live biofilm. The final assay was crystal violet staining, which indicated the amount of biofilm formation and the effect of each compound on this process, reported as total biofilm formation.
(§2) Briefly, stationary phase bacteria grown in L-broth were diluted 1:200 into fresh L-broth and 50 μM of each test compound. After 20-24 hours, the optical density (OD560) of each suspension was measured using Zeiss Plate::Vision with a 560 BP filter (560 nm, 2.5% light intensity, 1 mm focus to bottom of plate, and exposure time of 100 ms). To measure bacterial viability in the biofilm, 50 μl of a 5 mg/ml resazurin solution in L-broth was added to each well after washing 3 times with 50 μl of PBS. The plates were then incubated at 37° C. for 30 or 180 min for A. baumannii and P. aeruginosa biofilms, respectively. Fluorescence was measured using Zeiss Plate::Vision at excitation and emission wavelengths of 535 and 580 nm, 100 ms exposure time, 2.5% intensity and a 2 mm focus to the bottom of the biofilms. To assess biofilm formation, plates were washed 3 times with PBS and then 50 μl of 0.01% of crystal violet was added to each well to assess bacterial biofilm formation as described in a similar borosilicate tube assay by O'Toole and Kolter. After incubation at room temperature for 30 min and removal of the crystal violet solution by washing with PBS, 95% ethanol was added to solubilize the crystal violet followed by incubation for 20 min at room temperature. Finally, the optical density of each plate was determined using measured by Zeiss Plate::Vision using the same settings used to measure total bacterial growth. These 3 steps were used in each of the three tiers for the HTS process: (i) single point primary screening at 10 μM, (ii) triplicate confirmation of hits from (i) at 10 μM and (iii) determination of AC50 values in 10 point dose-response at a concentration range of 0.1-50 μM) in hits from (ii). The AC50 represents the concentration of compound that inhibits 50% of bacterial growth, bacterial viability, or biofilm formation. Genedata Screener® Assay Analyzer Software (Ver. 9.0.0 Standard) was used to analyze data from all assay tiers. Compounds with an AC50 of less than 20 μM in one of the biological assays from the dose response screen were subject to additional investigation.

For test [1], the system named is A. baumannii biofilm. Briefly: HTS total biofilm formation assay (crystal violet staining). Type of test: cell-based, Acinetobacter baumannii. To be noted: for AC50: Acinetobacter baumannii, 10 point dose-response 0.1-50 μM.
Description: as §1, §2

Test [2] relates to A. baumannii biofilm. Briefly: HTS live biofilm assay (resazurin metabolic activity). Type of test: cell-based, Acinetobacter baumannii. To be noted: for AC50: Acinetobacter baumannii, 10 point dose-response 0.1-50 μM.
Description: as §1, §2
(The colour change of resazurin is a common sign of viable cells or microbes.)

Test [3] concerns A. baumannii biofilm. The experiment in a line: CLSM, co-culture of bacteria with compound (inhibition of biofilm formation). Type of test: cell-based, Acinetobacter baumannii. To be noted: for killing of residential bacteria, co-culture (CLSM, in words): 10 μM; for Co-culture of bacteria with compound: Killing: Y / —. The protocol:
(§3) Broad spectrum agents (effective against all three bacterial species) and single agent compounds identified as HTS hits were investigated with CLSM confirmation of inhibition of biofilm formation (culture of bacteria with compounds) or killing of bacteria residing within an established biofilm (compound addition after culturing biofilm). To evaluate inhibition of P. aeruginosa biofilms, bacteria were sub-cultured into 10% L-broth and grown at 37° C. until the OD600 reached 0.25. The bacteria were further diluted 1:100 into a modified 0.5×M63 minimum media (50 mM KH2PO4, 7.5 mM (NH4)2SO4, 9 μM FeSO4, 0.5% casamino acids, 0.2% glucose, and 1 mM MgSO4). A. baumannii biofilms were also grown in 10% L-broth until the OD600 reached 0.05 but diluted 1:10 into 5% L-broth media. S. epidermidis biofilm cultures were grown. Briefly, the bacteria were grown in TSB until the OD600 reached 0.75, and a 1:100 dilution of the bacteria was sub-cultured into phosphate buffered saline (PBS). All of the biofilm bacterial cultures were grown in 96-well plate chambers (MatTek Corp., Ashland, Mass.) in the presence of 10 μM of each compound or DMSO as a control and incubated for 18 hrs at 37° C. To investigate the ability of compounds to kill bacteria within pre-existing biofilms, biofilms were grown under the same conditions, but without test compound. These biofilms were washed once with PBS and incubated an additional 24 hr at 37° C. in PBS containing 300 μM of each compound. All biofilm cultures were then washed twice with 100 μL of PBS and stained using the LIVE/DEAD® BacLight™ Bacterial Viability Kit (Invitrogen). Finally, biofilm images were obtained using a Zeiss LSM510 META Confocal Microscope (Carl Zeiss, Inc., Germany). A 488 nm laser was used in conjunction with a Plan-Apochromat 100×/1.4 Oil DIC objective. Z-stacks were 8 bit and measured 127.3 μm×127.3 μm×16.0 μm in size. The filters used were 505-530 and 620-680 IR, as the excitation and emission wavelengths for red fluorescence are 490 nm and 635 nm, respectively, and 480 nm and 500 nm for green fluorescence. Three dimensional images were generated using the “Projection” ability on LSM Image Browser software (v.1.4.0.121) or Zeiss LSM image browser software version 3.5 (Carl Zeiss, Inc., Germany), and Live/Dead calculations were conducted based upon these images using MacBiophotonics ImageJ following the guidelines in the cell counting guide by C. Labno {Rasband, 1997-2011 #25; Labno, #2} at the University of Chicago Integrated Light Microscopy Core. The thickness of the biofilm was calculated using Comstat software. A hit was defined as a >50% dead to live ratio.
(§4) The CLSM experiment was performed in one or two or all bacteria used in this study depending on its activity. For the validation of HTS hits, 10 μM of compound was added to each bacterial suspension and the resulting biofilm stained with LIVE/DEAD® BacLight™ Bacterial Viability Kit. The images were analyzed to determine the live and dead ratios of biofilm bacteria, the thickness of biofilms, and structural attributes of biofilms.

In another test the test system is P. aeruginosa biofilm. The test is described as above. The settings on record: for killing of residential bacteria, co-culture (CLSM, in words): 10 μM; for Co-culture of bacteria with compound: Killing: Y / —. Type of test: cell-based, Pseudomonas aeruginosa. The protocol: as §3, §4
The subject of a further test is S. epidermidis biofilm. The description is as above. Type of test: cell-based, Staphylococcus epidermidis. To be noted: for killing of residential bacteria, co-culture (CLSM, in words): 10 μM; for Co-culture of bacteria with compound: Killing: CLSM, 10 μM compound, 18 hrs, Y / —. As to the method: as §3, §4
Test [4] has as its system P. aeruginosa established biofilm. The experiment in a line: CLSM, effect of compound on the pre-existing biofilm. Type of test: cell-based, Pseudomonas aeruginosa. To be noted: for Effect of compound on the pre-existing biofilm: Dispersion: ** = Bacterial morphology changed. The protocol:
as §3, §4

Entries after “also recorded” stand apart in the source; their conditions may differ.

Broadly, the AC50 is the midpoint of the concentration-response curve, whichever way the signal moves. In the case of `Cn1sc(Cl)c(C#N)c1=O` [Compound 3, 5-chloro-2-methyl-3-oxo-1,2-thiazole-4-carbonitrile], the half-maximal activity concentration (AC50) in the test on P. aeruginosa worked out at 9.27 µM; in the test with A. baumannii biofilm [1], 4.45 µM; in the test with A. baumannii biofilm [2], 4.04 µM. In addition, the “killing of residential bacteria, co-culture (CLSM, in words)” value (“killing of residential bacteria” below) with A. baumannii biofilm [3], in the test with P. aeruginosa biofilm and in the test with S. epidermidis biofilm was “killed residential bacteria” in each case. Moreover, the “Co-culture of bacteria with compound: Killing” value in the test with A. baumannii biofilm [3] (CLSM, 10 μM compound, 18 hrs) is “Y (A hit was defined as a >50% dead to live ratio)”; with P. aeruginosa biofilm (CLSM, 10 μM compound, 18 hrs) it was “Y (A hit was defined as a >50% dead to live ratio)”; with S. epidermidis biofilm it was “Y (A hit was defined as a >50% dead to live ratio)”. In test [4] (300 μM, 24 hr), the “killing of established P. aeruginosa biofilm (CLSM, in words)” value was “demonstrated killing; also recorded: effective at killing”. The “Effect of compound on the pre-existing biofilm: Killing” value in test [4] (CLSM, 300 μM compound, 24 hr, Y / —) is “Y (A hit was defined as a >50% dead to live ratio)”.

As for `NC(=S)N1CCN(c2cc3c(cc2F)c(=O)c(C(=O)O)cn3C2CC2)CC1` [Compound 7, 7-(4-carbamothioylpiperazin-1-yl)-1-cyclopropyl-6-fluoro-4-oxoquinoline-3-carboxylic acid], the AC50 stood at 3 µM in the test with P. aeruginosa, 17.7 µM with A. baumannii biofilm [1] and 8.45 µM in the test with A. baumannii biofilm [2]. For the same compound, the “killing of residential bacteria” value in the test on A. baumannii biofilm [3], in the test on P. aeruginosa biofilm and with S. epidermidis biofilm was “killed residential bacteria” each time. Further, the “Co-culture of bacteria with compound: Killing” value in the test with A. baumannii biofilm [3] (CLSM, 10 μM compound, 18 hrs) is given as “Y (A hit was defined as a >50% dead to live ratio)”; in the test with P. aeruginosa biofilm (CLSM, 10 μM compound, 18 hrs), “Y (A hit was defined as a >50% dead to live ratio)”; in the test on S. epidermidis biofilm, “Y (A hit was defined as a >50% dead to live ratio)”. Besides, in test [4] (CLSM, 300 μM compound, 24 hr), the “Effect of compound on the pre-existing biofilm: Dispersion” value (shortened to “Effect of compound … Dispersion”) was “caused dispersion and Y**”. Further, the “bacterial morphology in established P. aeruginosa biofilm (CLSM)” value in test [4] is recorded as “altered the morphology”.

On to `O=C(O)c1cn(C2CC2)c2c(F)c(N3CC(O)C3)c(F)cc2c1=O` [Compound 8, 1-cyclopropyl-6,8-difluoro-7-(3-hydroxyazetidin-1-yl)-4-oxoquinoline-3-carboxylic acid], for which the results for the AC50 in the test with P. aeruginosa and in the test with A. baumannii biofilm [2] were 44.4 µM and 2.33 µM, respectively. The “HTS assay results: Total Bacteria growth” value in the test on P. aeruginosa (Y / —) is listed as “—* (AC50 higher than 20 μM)”. Further, in the test with A. baumannii biofilm [1] (Y / —), the “HTS assay results: Biofilm Formation” value is recorded as “—* (AC50 higher than 20 μM)”. Further, the “HTS assay results: Live Bacteria” value with A. baumannii biofilm [2] (Y / —) is reported as “—* (AC50 higher than 20 μM)”. Also, the “killing of residential bacteria” value in the test on A. baumannii biofilm [3] and in the test on S. epidermidis biofilm was “killed residential bacteria” in each case. In addition, the “Co-culture of bacteria with compound: Killing” value in the test on A. baumannii biofilm [3] (CLSM, 10 μM compound, 18 hrs) is “Y (A hit was defined as a >50% dead to live ratio)”; in the test with S. epidermidis biofilm, “Y (A hit was defined as a >50% dead to live ratio)”. In addition, the “biofilm architecture / thickness of established P. aeruginosa biofilm (CLSM)” value in test [4] (300 μM) was “thinner biofilm architecture”. In addition, the “Effect of compound … Dispersion” value in test [4] (CLSM, 300 μM compound, 24 hr) was “caused dispersion and Y**”. Further, the “bacterial morphology in established P. aeruginosa biofilm (CLSM)” value in test [4] was “altered the morphology”.

For the compound `O=C(O)c1cn(C2CC2)c2c(F)c(-c3ccncc3)c(F)cc2c1=O` [Compound 11, 7-(4-pyridyl)-1-cyclopropyl-6,8-difluoro-4-oxoquinoline-3-carboxylic acid], the figures for the half-maximal activity concentration (AC50) in the test with P. aeruginosa, with A. baumannii biofilm [1] and in the test on A. baumannii biofilm [2] were 16 µM, 0.85 µM and 0.61 µM, respectively. The “Co-culture of bacteria with compound: Inhibit biofilm formation” value in the test with A. baumannii biofilm [3] (CLSM, 10 μM compound, 18 hrs) is reported as “inhibited biofilm formation”; in the test with P. aeruginosa biofilm (CLSM, 10 μM compound, 18 hrs), “no effect”. The “killing of residential bacteria” value with S. epidermidis biofilm is “killed”. Besides, the “Co-culture of bacteria with compound: Killing” value in the test on S. epidermidis biofilm is on record as “Y (A hit was defined as a >50% dead to live ratio)”. In addition, the “biofilm architecture / thickness of established P. aeruginosa biofilm (CLSM)” value in test [4] (300 μM) is given as “thinner biofilm architecture”. Further, the “Effect of compound … Dispersion” value in test [4] (CLSM, 300 μM compound, 24 hr) was “caused dispersion and Y**”. Further, in test [4], the “bacterial morphology in established P. aeruginosa biofilm (CLSM)” value is “altered the morphology”.
